{"source": "patent US8026362B2", "about": "“Non-nucleoside reverse transcriptase inhibitors” (Roche Palo Alto LLC, priority 2007, dated 2011)", "key": {"HIV-1 RT": {"molecular_target": "HIV-1 RT (Human immunodeficiency virus type 1 group M subtype B, UniProt P04585)", "experiment": "HIV-1 Reverse Transcriptase Assay (RNA-dependent DNA polymerase activity, SPA)", "type": "biochemical", "settings": "30° C., 30 min, 10% DMSO", "experimental": "RNA-dependent DNA polymerase activity was measured using a biotinylated primer oligonucleotide and tritiated dNTP substrate. Newly synthesized DNA was quantified by capturing the biotinylated primer molecules on streptavidin coated Scintillation Proximity Assay (SPA) beads (Amersham). The sequences of the polymerase assay substrate were: 18 nt DNA primer, 5′-Biotin/GTC CCT GTT CGG GCG CCA-3′; 47 nt RNA template, 5′-GGGUCUCUCUGGUUAGACCACUCUAGCAGUGGCGCCCGAACAGGGAC-3′. The biotinylated DNA primer was obtained from the Integrated DNA Technologies Inc. and the RNA template was synthesized by Dharmacon. The DNA polymerase assay (final volume 50 μl) contained 32 nM biotinylated DNA primer, 64 nM RNA substrate, dGTP, dCTP, dTTP (each at 5 μM), 103 nM [^3H]-dATP (specific activity=[…]), in 45 mM Tris-HCl, pH 8.0, 45 mM NaCl, 2.7 mM Mg(CH3COO)2, 0.045% Triton X-100 w/v, 0.9 mM EDTA. The reactions contained 5 ul of serial compound dilutions in 100% DMSO for IC50 determination and the final concentrations of DMSO were 10%. Reactions were initiated by the addition of 30 μl of the HIV-RT enzyme (final concentrations of 1-3 nM). Protein concentrations were adjusted to provide linear product formation for at least 30 min of incubation. After incubation at 30° C. for 30 min, the reaction was quenched by addition of 50 μl of 200 mM EDTA (pH 8.0) and […] SA-PVT SPA beads (Amersham, RPNQ0009, reconstituted in 20 mM Tris-HCl, pH 8.0, 100 mM EDTA and 1% BSA). The beads were left to settle overnight and the SPA signals were counted in a 96-well top counter-NXT (Packard)."}, "[1]": {"tested_on": "HXB2-strain of HIV in MT4 cells", "experiment": "Antiviral assay: protection of HIV-infected MT4 cells from cell death (MTT)", "type": "cell-based", "settings": "Human immunodeficiency virus 1, 120 h; MT4 cells infected with HXB2-strain of HIV, 5 days, MTT viability", "experimental": "Anti-HIV antiviral activity was assessed using an adaptation of the method of Pauwels et al. {Pauwels et al., J Virol Methods 1988 20:309-321}. The method is based on the ability of compounds to protect HIV-infected T lymphoblastoid cells (MT4 cells) from cell-death mediated by the infection. The endpoint of the assay was calculated as the concentration of compound at which the cell viability of the culture was preserved by 50% (‘50% inhibitory concentration’, IC50). The cell viability of a culture was determined by the uptake of soluble, yellow 3-[4,5-dimethylthiazol-2-yl]-2,5-diphenyltetrazolium bromide (MTT) and its reduction to a purple insoluble formazan salt. After solubilization, spectrophotometric methods were employed to measure the amount of formazan product. […]\nA fresh solution of 5 mg/mL MTT was prepared in 0.01 M phosphate buffered saline, pH 7.2 and 20 microliters added to each culture. […] When the formazan deposit was fully solubilized by further mixing, the absorbance (OD) of the cultures was measured at 540 nm and 690 nm wavelength (690 nm readings were used as blanks for artifacts between wells). The percent protection for each treated culture was then calculated from the equation: […]"}}}
{"smiles": "N#Cc1cc(Cl)cc(Oc2c(Br)ccc(CN3CC(=O)NC3=O)c2F)c1", "note": "[Compound I-20, 3-[6-Bromo-3-(2,4-dioxo-imidazolidin-1-ylmethyl)-2-fluoro-phenoxy]-5-chloro-benzonitrile]", "values": [{"measurement": "IC50", "setting": "HIV-1 RT", "value": 9, "unit": "nM"}, {"measurement": "IC50", "setting": "[1]", "value": 4.2, "unit": "nM"}, {"measurement": "melting point", "value": "131.5 to 132.8", "unit": "°C"}]}
{"smiles": "Cc1cn(Cc2ccc(Br)c(Oc3cc(Cl)cc(C#N)c3)c2F)c(=O)[nH]c1=O", "note": "[Compound I-2, 3-[6-Bromo-2-fluoro-3-(5-methyl-2,4-dioxo-3,4-dihydro-2H-pyrimidin-1-ylmethyl)-phenoxy]-5-chloro-benzonitrile]", "values": [{"measurement": "IC50", "setting": "HIV-1 RT", "value": 3.9, "unit": "nM"}, {"measurement": "IC50", "setting": "[1]", "value": 3.1, "unit": "nM"}, {"measurement": "melting point", "value": "223.1 to 224.2", "unit": "°C"}]}
{"smiles": "N#Cc1cc(C#N)cc(Oc2c(Br)ccc(Cn3cc(Cl)c(=O)[nH]c3=O)c2F)c1", "note": "[Compound I-9, 5-[6-Bromo-3-(5-chloro-2,4-dioxo-3,4-dihydro-2H-pyrimidin-1-ylmethyl)-2-fluoro-phenoxy]-isophthalonitrile]", "values": [{"measurement": "IC50", "setting": "HIV-1 RT", "value": 5.2, "unit": "nM"}, {"measurement": "melting point", "value": "255 to 255.6", "unit": "°C"}]}
{"smiles": "N#Cc1cc(Cl)cc(Oc2c(Br)ccc(Cn3cc(Cl)c(=O)[nH]c3=O)c2F)c1", "note": "[Compound I-4, 3-[6-Bromo-3-(5-chloro-2,4-dioxo-3,4-dihydro-2H-pyrimidin-1-ylmethyl)-2-fluoro-phenoxy]-5-chloro-benzonitrile]", "values": [{"measurement": "IC50", "setting": "HIV-1 RT", "value": 4.1, "unit": "nM"}, {"measurement": "melting point", "value": "260.8 to 261.7", "unit": "°C"}]}
{"smiles": "Cc1cn(Cc2ccc(Cl)c(Oc3cc(Cl)cc(C#N)c3)c2F)c(=O)[nH]c1=O", "note": "[Compound I-17, 3-Chloro-5-[6-chloro-2-fluoro-3-(5-methyl-2,4-dioxo-3,4-dihydro-2H-pyrimidin-1-ylmethyl)-phenoxy]-benzonitrile]", "values": [{"measurement": "IC50", "setting": "HIV-1 RT", "value": 3.1, "unit": "nM"}, {"measurement": "melting point", "value": "226 to 227.5", "unit": "°C"}]}
